Laboratory results: patent publication US20120035165A1, “Use of fungicidal compound compositions for controlling certain rust fungi” (Bayer CropScience AG, priority 2008, published 2012)

System: Phakopsora pachyrhizi
Assay: Phakopsora test (soybeans)/protective
Format: in vivo, Phakopsora pachyrhizi on soybeans
Details: protective spray on young soybean plants, inoculated 1 day after spraying, evaluated 10 days after inoculation
Method: Phakopsora Test (Soybeans)/Protective Solvent: 28.5 parts by weight of acetone Emulsifier: 1.5 parts by weight of polyoxyethylene alkyl phenyl ether To produce a suitable preparation of active compound, 1 part by weight of active compound or active compound combination is mixed with the stated amounts of solvent and emulsifier, and the concentrate is diluted with water to the desired concentration. To test for protective activity, young plants are sprayed with the preparation of active compound or active compound combination at the stated rate of application. After the spray coating has dried on, the plants are placed in a greenhouse at a temperature of approximately 23° C. and a relative atmospheric humidity of approximately 70%. 1 day after spraying, the plants are inoculated with an aqueous spore suspension of the causal agent of soybean rust (Phakopsora pachyrhizi). The plants are then placed in a greenhouse at approximately 20° C. and a relative atmospheric humidity of approximately 80%. The test is evaluated 10 days after the inoculation. 0% means an efficacy which corresponds to that of the control, while an efficacy of 100% means that no disease is observed.

SMILES	Efficacy in % (rate of application 10 ppm) [%]	Efficacy in % (rate of application 0.5 ppm) [%]
Cn1cc(C(=O)Nc2ccc(F)cc2-c2ccc(Cl)c(Cl)c2)c(C(F)F)n1 [(I-2) Bixafen, N-(3′,4′-dichloro-5-fluoro-1,1′-biphenyl-2-yl)-3-(difluoromethyl)-1-methyl-1H-pyrazole-4-carboxamide]	50	–
OC(Cc1ccccc1Cl)(Cn1nc[nH]c1=S)C1(Cl)CC1 (centres unmarked) [(III-1) Prothioconazole, Prothioconazole]	–	50
